We go through 1 compound from patent US20260248833A1, “PYRIMIDINE NUCLEOSIDE TREATMENTS” (The Children`s Medical Center Corporation, priority 2022, published 2026).

Entries after “also recorded” stand apart in the source; their conditions may differ.

Data set [1] concerns pCHK1-S345 and pRPA32-S33. The experiment in a line: Immunoblot of replication stress signaling in iPSCs. In kind it is cell-based, human. The following applies: iPSCs treated with dT. (In general: Immunoblotting shows a protein as a band on a membrane.)
For data set [2], the system named is super-telomerase cells (TERC-null 293T cells transfected with TERT and TERC). The data set can be described thus: TRF Southern blot telomere synthesis in super-telomerase cells. In kind it is cell-based, human. How it is done:
(§1) Terminal Restriction Fragment Length Analysis: genomic DNA was isolated from cells using the Invitrogen Purelink Genomic DNA mini kit (Invitrogen). 1-3 μg of gDNA was digested with RsaI and HinfI for 2-3 hrs at 37° C. and loaded onto a 0.6% agarose gel followed by Southern blotting using the Telotaggg Telomere Length Assay Kit (Roche). Quantification was performed using the WALTER webtool.
dT supplementation increases levels of dTTP and can reduce dCTP levels, leading to replication stress at high doses. Because replication stress signaling has been implicated in telomerase biology we asked whether replication stress induction explained the telomere length increases seen with dT treatment. We first tested whether telomere elongation is a universal response to replication stress-inducing compounds. […] However, cytotoxicity limited our ability to apply higher doses of replication stress-inducing compounds for time periods long enough to study telomere length changes. […] Using this system, we next asked how high-dose treatment with replication stress-inducing agents such as aphidicolin, hydroxyurea, and the TYMS inhibitor 5FU influence telomere synthesis compared to dT.

Data set [3] deals with cell cycle progression. The following applies: cited from earlier work.
The subject of data set [4] is K562 cells. The experiment in a line: Cell cycle analysis by DAPI staining and flow cytometry, K562 cells. The format is cell-based, human. Here is the method: (§2) Cell cycle analysis by DNA content staining and flow cytometry: Cells were prepared either for flow-FISH staining as described (for experiments in FIG. 5) or by ethanol fixation (for data in FIG. 6, 27), followed by rehydration and counterstaining using DAPI (BD Biosciences) and analysis on an LSR-II or Fortessa analyzer (BD Biosciences) using BD FACSDiva 8.0.2. Cells were gated on FSC/SSC as described in FIG. 6d using FlowJo V10.7.1.
(In general: A flow cytometer gives signals particle by particle.)

Data set [5] relates to mouse model of TK2 deficiency. The following applies: 520 mg/kg/day of dT; cited from earlier work.
Data set [6] concerns iPSCs derived from TBD patients. The experiment in a line: TRF Southern blot telomere length, TBD patient-derived iPSCs. In kind it is cell-based, human. The following applies: for telomere length increase / telomere elongation: 50 μM dT for three weeks; for telomere elongation: panel of TBD patient iPSCs (TERC, DKC1, PARN). How it is done: (§3) Cell culture: K562 cells (ATCC) were grown in RPMI1 1640 (Gibco) media supplemented with 10% fetal bovine serum. 293T cells (ATCC) were grown in DMEM (Gibco) supplemented with 10% fetal bovine serum, and were subcultured using 0.05% trypsin (Gibco). iPSCs were derived, characterized and cultured as previously described. iPSCs were grown in Essential 8 Media (Life Technologies) supplemented with the ROCK inhibitor Y271632 (Stem Cell Technologies) at 10 μM on plates coated with hES qualitied Matrigel matrix (Corning) and were subcultured using Accutase (Stem Cell Technologies).
as §1

The subject of data set [7] is human HSPCs. The data set can be described thus: TRF telomere length of HSPCs. The format is cell-based. The following applies: HSPCs treated with dT for 7 days (FIG. 19). How it is done:
as §1

The test system of data set [8] is T-free super-telomerase expressing cells (293T TERC-null). The data set can be described thus: Slot blot of GGAAAG repeat content in cellular DNA. The format is cell-based, human. Here is the method: Slot blotting: slot blotting was performed as described with minor modifications. Briefly, DNA concentration was normalized to 20 ng/μl using a nanodrop spectrophotometer. 3.3 μl of DNA was added to 16.5 μl of denaturation solution (0.5 M NaOH, 1.5 M NaCl) and heated to 55° C. for 30 minutes. 495 μl of neutralization solution (0.5 M Tris-HCl, 1.5 M NaCl) was added to denatured DNA and 156 μl of this solution was added in triplicate to different slots on a Bio-Dot SF Apparatus (Bio-Rad) and blotted onto Hybond N+ Membrane (Cytivia). Membrane preparation and washing was performed as described. For samples with paired GGTTAG and GGAAAG slot blots, the above recipe was doubled, and 156 μl was loaded onto parallel membranes in triplicate on each membrane. After blotting, membranes were hybridized and detected as described above for TRF Southern blots using the probe indicated in the figure. Blots were analyzed using ImageJ. Statistical analysis was performed using Graphpad prism V9.1.0.

For data set [9], the system named is pCHK1-S345 and pRPA32-S33. The experiment in a line: Immunoblot of replication stress signaling in super-telomerase cells. The format is cell-based, human.
The conditions of data set [10]: cited from earlier work.
Data set [11] relates to TERC-null 293T cells. The experiment in a line: TRF Southern blot telomere length, telomerase-negative TERC-null 293T cells. In kind it is cell-based, human. The following applies: 100 μM thymidine for 7 days. Here is the method: as §3, §1
Data set [12] deals with 293T cells. The data set can be described thus: Cell cycle analysis by DAPI staining and flow cytometry, 293T cells. The format is cell-based, human. How it is done: as §2

For the compound `Cc1cn([C@H]2C[C@H](O)[C@@H](CO)O2)c(=O)[nH]c1=O` [dT, 1-[(2R,4S,5R)-4-Hydroxy-5-(hydroxymethyl)oxolan-2-yl]-5-methylpyrimidine-2,4 (1H,3H)-dione], the replication stress signaling entry is listed as “no indication of replication stress signaling” in [1] and “induced similar levels of replication stress signaling” in [9] (highest doses, 30 hours). Further, the “dose at which increased telomere repeat synthesis could be observed” value in data set [2] (30 hours) amounted to 40 µM. The “rescue of telomere synthesis following 5FU treatment” value in [2] (dT supplementation with maximal doses of 5FU) is given as “restored telomere elongation despite maximal doses of 5FU; also recorded: fully rescued telomere synthesis”. Besides, the “maximal rate of telomere elongation” value in data set [2] (high-dose dT treatment, 30 hours, baseline 103 bp/hour) worked out at 625 bp/hour. In addition, in [2] (treatment for 30 hours), the “telomere repeat synthesis / telomere elongation by telomerase” value was “robustly increased telomere repeat synthesis in a dose-responsive and telomerase-dependent manner”. For the same compound, the “doses typically used to synchronize cells in S phase” value in data set [3] was 1 to 2 mM. Also, the “dT doses with no detectable changes in cell cycle distribution” value in [4] is recorded as “below 12.5 μM”; in data set [12] it was “below 100 μM”. The lifespan result in data set [5] is “increased lifespan in a mouse model of TK2 deficiency”. For the same compound, the figures for the telomere length increase in data set [6] (PARN deficient iPSCs) and in [6] (TERC deficient iPSCs) were 570 bp and 640 bp, respectively. For the same compound, the telomere length entry in data set [6] (TBD patient-derived iPSCs with two different mutations, 100 μM dT for 22 days (FIG. 13A)) is listed as “increased telomere length”; in data set [7], “lengthens telomeres in human HSPCs after just 7 days”; in data set [11] it was “failed to drive detectable telomere elongation”. Also, the telomere elongation result in data set [6] was “produced telomere elongation in all cases”; in [6] (listed as thymidine), “hundreds of basepairs”. The GGAAAG repeat content entry in [8] (100 μM dT, 30 hours, wild-type versus T-free super-telomerase) is listed as “an increase in GGAAAG repeat content exclusively in cells expressing T-free telomerase; also recorded: enhanced repeat synthesis by telomerase”. Also, in data set [8] (dT with 5FU), the “rescue of GGAAAG repeat synthesis following 5FU treatment” value was “could rescue the inhibition of GGAAAG repeat synthesis following 5FU treatment; also recorded: rescued by dT supplementation”. In addition, the “replication stress signaling at the telomere-active dose” value in [9] (40 μM dT) is “far below doses that induce replication stress signaling”. In data set [10], the aqueous solubility entry is on record as “about 50 mg/ml”.
